Data from publication PMC10537105, “Derivatives Incorporating Acridine, Pyrrole, and Thiazolidine Rings as Promising Antitumor Agents” (Molecules, 2023).

Legend:
MDA-MB-231 = experiment: MTT assay, MDA-MB-231 cells; format: cell-based, human; details: Homo sapiens, MDA-MB-231, 72 h of incubation, read-out: IC50 values ± SD, MDA-MB-231
Excerpt: (§1) The impact of acridine spiro derivatives 6–10 (Figure 13) on the metabolic activity of various tumor cell lines HCT-116 (human colorectal carcinoma), Jurkat (human leukemia cells), HeLa (human cervical adenocarcinoma), MDA-MB-231, and MCF-7 (human breast adenocarcinoma), and normal cell lines COS-7 (monkey kidney cells) and BJ-5ta (skin fibroblasts) was investigated using the MTT assay. This assay measures the conversion of yellow 3-(4,5-dimethylthiazol-2-yl)-2,5-diphenyltetrazolium bromide (MTT) to insoluble purple formazan by metabolically active cells. The antiproliferative activities of the tested compounds were determined based on the results from the MTT assay, and the inhibitory concentration values (IC50) are presented in Table 5.
(§2) The human cancer cell lines employed in this study were sourced from reputable institutions, including the American Type Culture Collection (ATCC; Manassas, VA, USA) and the European Collection of Authenticated Cell Cultures (ECACC, Salisbury, UK). Specifically, HeLa (93021013, human cervical adenocarcinoma), HCT116 (CCL-247TM, human colorectal carcinoma), and Jurkat (88042803, human leukemic T-cell lymphoma) were cultured in RPMI 1640 medium (Biosera, Kansas City, MO, USA). In contrast, MCF-7 (HTB-22TM, human breast adenocarcinoma, ER+), MDA-MB-231 (HTB-26TM, human breast adenocarcinoma, ER−), and COS-7 (CRL-1651TM, kidney fibroblasts) were nurtured in high-glucose Dulbecco’s Modified Eagle Medium (DMEM) supplemented with sodium pyruvate (Biosera). Furthermore, BJ-5ta (CRL-4001TM, human dermal fibroblasts) was cultured in a composite medium of high-glucose DMEM and M199 (4:1) (Biosera), supplemented with Hygromycin B (0.01 mg/mL; Merck, Darmstadt, Germany). All culture media were enriched with a 10% fetal bovine serum (FBS; Gibco, Thermo Scientific, Rockford, IL, USA) and an antibiotic/antimycotic solution (Merck) to ensure optimal growth conditions. The cells were meticulously maintained within a humidified environment containing 5% CO2 at 37 °C. Regular screenings for mycoplasma contamination were conducted using Hoechst 33342 staining (Merck), confirming the integrity of the cell lines.
(§3) To assess the antiproliferative impact of the synthesized compounds 6–10, their half-maximal inhibitory concentration (IC50) and the MTT colorimetric assay were employed. MDA-MB-231 and MCF-7 cells were seeded into 96-well microplates (SARSTEDT, Nümbrecht, Germany) at a density of 5 × 10^3 cells per well. After 24 h of cell seeding, various concentrations (100, 50, and 10 µmol/L) of acridine derivatives 6–10 were introduced, alongside cisplatin (utilized as a reference) at concentrations of 5, 10, 20, 50, and 100 µmol/L. Subsequent to 24, 48, and 72 h of treatment, the cells in each well underwent incubation with MTT (5 mg/mL, Sigma-Aldrich Chemie, Steinheim, Germany) for 4 h at 37 °C in the dark. During this period, mitochondrial oxidoreductases metabolized MTT, forming insoluble formazan. Following this, 100 µL of SDS (10% […]) was added to dissolve the formazan crystals, and the cells were incubated for an additional 12 h. Absorbance at 540 nm was measured using the automated Cytation™ 3 Cell Imaging Multi-Mode Reader (Biotek, Winooski, VT, USA). Each test was performed in triplicate, and three independent experiments were conducted to ensure precision and reliability.

MCF-7 = experiment: MTT assay, MCF-7 cells; format: cell-based, human; details: Homo sapiens, MCF7, 72 h of incubation, read-out: IC50 values ± SD, MCF-7
Excerpt: as §1, §2, §3

BJ-5ta = experiment: MTT assay, BJ-5ta normal fibroblasts; format: cell-based, human; details: Homo sapiens, Fibroblast, 72 h of incubation, normal cell line, read-out: IC50 values ± SD, BJ-5ta
Excerpt: as §1, §2, §3

[1] = system: primary brain endothelial cells; experiment: Endothelial cell viability assay (ATP, CellTiter-Glo); format: cell-based, rats; details: primary rat brain endothelial cells
Excerpt: To comprehensively evaluate the cytotoxic effects of the investigated compounds 6c, 6e, and 8a, 8c, we conducted tests on primary endothelial cells. This additional assessment served multiple purposes in our study. Firstly, it aimed to assess the selectivity of these compounds, particularly in comparison to their effects on both tumor and normal cell lines. […] Secondly, by examining their impact on endothelial cells, we aimed to explore potential off-target effects, as endothelial cells are crucial components of blood vessels and play a pivotal role in angiogenesis—a process intricately linked to tumor growth. Lastly, these tests allowed for a broader safety assessment, beyond the scope of tumor and normal cell lines, providing insights into the compounds’ implications for vascular health and their regulatory role in angiogenesis.
Primary brain endothelial cells were isolated from rats (200–250 g, […]; n = 5 per isolation). Euthanasia was performed by CO2 exposure, followed by brain removal. The brainstem and cerebellum were dissected, and the white matter from the midbrain and choroid plexus was excised under sterile conditions. Cortical tissues were meticulously cleaned of meninges and homogenized on ice in a DMEM-F12 medium (PAA Laboratories GmbH, Cölbe, Germany) with 0.1% bovine serum albumin (BSA, Sigma-Aldrich, St. Louis, MO, USA). The homogenate was centrifuged at 800× g for 10 min at 4 °C. After aspirating the supernatant, the pellet was resuspended in a pre-warmed digestion mix containing 1 mg/mL collagenase/dispase (Roche Diagnostics, Indianapolis, IN, USA) and 10 μg/mL DNase I (Roche Diagnostics, Indianapolis, IN, USA). The homogenates were then incubated with the pre-prepared digestion mix at 37 °C for 30 min with gentle shaking. The preparation was centrifuged at 800× g for 10 min at 4 °C, and the pellets were resuspended in 20% BSA in the medium. The tissues were centrifuged at 1500× g for 15 min at 4 °C to obtain a pellet containing microvessels with a fraction of myelin and BSA on top, which was centrifuged again. The microvessels were pooled and resuspended in a pre-warmed digestion mix and incubated for 15 min at 37 °C. The pellet was then centrifuged at 800× g for 10 min at 4 °C and washed with a serum-containing DMEM-F12 culture medium. […] The endothelial cells were ready to use after 7 days.
The endothelial cell viability was assessed through the quantification of adenosine triphosphate (ATP) released from the cells, utilizing the ATP assay as per the manufacturer’s instructions (The Promega CellTiter-Glo™ Luminescent Cell Viability Assay Kit, Madison, WI, USA). […]

Jurkat = experiment: MTT assay, Jurkat cells; format: cell-based, human; details: Homo sapiens, Jurkat; MTT, 72 h of incubation; read-out: IC50 values ± SD, Jurkat
Excerpt: as §1, §2, §3

COS-7 = experiment: MTT assay, COS-7 normal cells; format: cell-based, monkey; details: Primates, COS-7, 72 h of incubation, normal cell line, read-out: IC50 values ± SD, COS-7
Excerpt: as §1, §2, §3

HCT-116 = experiment: MTT assay, HCT-116 cells; format: cell-based, human; details: Homo sapiens, HCT-116; MTT, 72 h of incubation; read-out: IC50 values ± SD, HCT-116
Excerpt: as §1, §2, §3

HeLa = experiment: MTT assay, HeLa cells; format: cell-based, human; details: Homo sapiens, HeLa, 72 h of incubation, read-out: IC50 values ± SD, HeLa
Excerpt: as §1, §2, §3

Row | SMILES | melting point | IC50 (MDA-MB-231) | IC50 (MCF-7) | IC50 (BJ-5ta) | IC50 [1] | IC50 (Jurkat) | IC50 (COS-7) | IC50 (HCT-116) | IC50 (HeLa)
1 | N#CC1=CC2(c3ccccc3Nc3ccccc32)N(NC(=S)Nc2ccc([N+](=O)[O-])cc2)C1=O [6e, 3-{4′-Cyano-5′-oxo-1′,5′-dihydro-10H-spiro[acridine-9,2′-pyrrol]-1′-yl}-1-(4-nitrophenyl)thiourea] | 175 to 179 °C (dec.) | 78.8 ± 4.87 µM | 39.7 ± 0.58 µM | 71.1 ± 2.62 µM | 45 µM | 7.82 ± 0.31 µM | 87.1 ± 5.82 µM | 19.6 ± 1.07 µM | 52.1 ± 2.99 µM
2 | N#CC1=CC2(c3ccccc3Nc3ccccc32)N(NC(=S)Nc2ccc(F)cc2)C1=O [6d, 3-{4′-Cyano-5′-oxo-1′,5′-dihydro-10H-spiro[acridine-9,2′-pyrrol]-1′-yl}-1-(4-fluorophenyl)thiourea] | 197 to 199 °C (dec.) | > 100 µM | > 100 µM | > 100 µM | – | 31.8 ± 5.65 µM | > 100 µM | 18.9 ± 4.71 µM | > 100 µM
3 | COc1cccc(N2C(=O)C(C)S/C2=N\N2C(=O)C(C#N)=CC23c2ccccc2Nc2ccccc23)c1 (centres unmarked) [9c, 1′-{[(2Z)-3-(3-Methoxyphenyl)-5-methyl-4-oxo-1,3-thiazolidin-2-ylidene]amino}-5′-oxo-1′,5′-dihydro-10H-spiro[acridine-9,2′-pyrrole]-4′-carbonitrile] | 237 to 240 °C (dec.) | 40.8 ± 0.84 µM | 65.3 ± 1.89 µM | 32.7 ± 0.47 µM | – | 25.8 ± 2.58 µM | > 100 µM | 32.7 ± 1.51 µM | 44 ± 5.88 µM
4 | CCOC(=O)/C=C1\S/C(=N\N2C(=O)C(C#N)=CC23c2ccccc2Nc2ccccc23)N(c2cccc(OC)c2)C1=O [8c, Ethyl 2-[(2Z,5Z)-2-({4′-cyano-5′-oxo-1′,5′-dihydro-10H-spiro[acridine-9,2′-pyrrol]-1′-yl}imino)-3-(3-methoxyphenyl)-4-oxo-1,3-thiazolidin-5-ylidene]acetate] | 239 to 243 °C (dec.) | 7.98 ± 0.93 µM | 7.75 ± 0.41 µM | 7.18 ± 0.19 µM | 20 µM | 5.67 ± 0.03 µM | 8.95 ± 0.08 µM | 5.44 ± 0.05 µM | 5.83 ± 0.03 µM
5 | N#CC1=CC2(c3ccccc3Nc3ccccc32)N(/N=C2\SCC(=O)N2c2ccc(F)cc2)C1=O [7d, 1′-{[(2Z)-3-(4-Fluorophenyl)-4-oxo-1,3-thiazolidin-2-ylidene]amino}-5′-oxo-1′,5′-dihydro-10H-spiro[acridine-9,2′-pyrrole]-4′-carbonitrile] | 249 to 252 °C (dec.) | > 100 µM | 32.5 ± 6.5 µM | > 100 µM | – | > 100 µM | > 100 µM | 46.6 ± 2.66 µM | 62.5 ± 14 µM
6 | CC1S/C(=N\N2C(=O)C(C#N)=CC23c2ccccc2Nc2ccccc23)N(c2ccc([N+](=O)[O-])cc2)C1=O (centres unmarked) [9e, 1′-{[(2Z)-5-Methyl-3-(4-nitrophenyl)-4-oxo-1,3-thiazolidin-2-ylidene]amino}-5′-oxo-1′,5′-dihydro-10H-spiro[acridine-9,2′-pyrrole]-4′-carbonitrile] | 170 to 173 °C (dec.) | > 100 µM | > 100 µM | > 100 µM | – | 34.4 ± 2.13 µM | > 100 µM | > 100 µM | > 100 µM
7 | CCCC1S/C(=N\N2C(=O)C(C#N)=CC23c2ccccc2Nc2ccccc23)N(c2ccc([N+](=O)[O-])cc2)C1=O (centres unmarked) [10e, 1′-{[(2Z)-3-(4-Nitrophenyl)-4-oxo-5-propyl-1,3-thiazolidin-2-ylidene]amino}-5′-oxo-1′,5′-dihydro-10H-spiro[acridine-9,2′-pyrrole]-4′-carbonitrile] | 249 to 251 °C (dec.) | > 100 µM | 91.3 ± 3.74 µM | > 100 µM | – | > 100 µM | > 100 µM | > 100 µM | > 100 µM
8 | COc1ccc(N2C(=O)C(C)S/C2=N\N2C(=O)C(C#N)=CC23c2ccccc2Nc2ccccc23)cc1 (centres unmarked) [9b, 1′-{[(2Z)-3-(4-Methoxyphenyl)-5-methyl-4-oxo-1,3-thiazolidin-2-ylidene]amino}-5′-oxo-1′,5′-dihydro-10H-spiro[acridine-9,2′-pyrrole]-4′-carbonitrile] | 219 to 224 °C (dec.) | > 100 µM | > 100 µM | > 100 µM | – | > 100 µM | > 100 µM | > 100 µM | > 100 µM
9 | COc1cccc(N2C(=O)CS/C2=N\N2C(=O)C(C#N)=CC23c2ccccc2Nc2ccccc23)c1 [7c, 1′-{[(2Z)-3-(3-Methoxyphenyl)-4-oxo-1,3-thiazolidin-2-ylidene]amino}-5′-oxo-1′,5′-dihydro-10H-spiro[acridine-9,2′-pyrrole]-4′-carbonitrile] | 217 to 220 °C (dec.) | 39.7 ± 2.4 µM | 45.14 ± 0.04 µM | 38 ± 1.44 µM | – | 22.1 ± 0.43 µM | 55.2 ± 5.38 µM | 24.4 ± 1.31 µM | 54 ± 0.72 µM
